Molecules are shown by their SMILES. Where a name gives a salt, the structure may show the parent alone.

The source of these data is patent US20250162995A1, “PHENTOLAMINE MESYLATE AND THERAPEUTIC USES THEREOF” (Opus Genetics, Inc., priority 2023, published 2025).

This data set can be described thus: XRPD analysis of the solid form after further drying (form stability). It counts as physicochemical. Conditions: further dried at 0.24 bar and 25° C. for 16 hours. As for the experimental part: Unless otherwise noted, XRPD data was collected using a PANanalytical EMPYREAN vs. 8.2 20201404 diffractometer with a Cu-Kα radiation (λ=1.541874 Å) source operating at 45 kV and 40 mA in transmission theta-theta configuration. Samples were scanned from 2° to 40° 2-theta with a step size of 0.013° 2-theta and a time per step of 78.795 sec. Data collection was performed with DATA COLLECTOR vs. 7.1 and processed with Data Viewer vs. 2.1 and Profex 5.2.4 software.
The phentolamine mesylate obtained according to this Example 4 was further dried at 0.24 bar and 25° C. for 16 hours.
The phentolamine mesylate obtained according to this Example 6 was further dried at 25° C. at 0.24 bar for 16 hours.
The phentolamine mesylate obtained according to this Example 7 was further dried at 0.24 bars at 25° C. for 16 hours.
The phentolamine mesylate obtained according to this Example 11 was further dried at 25° C. and 0.24 bar for 16 hours.
The phentolamine mesylate obtained according to this Example 12 was further dried at 25° C. and 0.24 bar for 16 hours.
With `Cc1ccc(N(CC2=NCCN2)c2cccc(O)c2)cc1` [Example 4, phentolamine mesylate], the “solid form found by XRPD analysis of the further dried material” value (from here on “solid form found by XRPD analysis”) was “converted to a mixture of the phentolamine mesylate having XRPD peaks of Reference A and the phentolamine mesylate obtained according to Example 1”.

In the case of `Cc1ccc(N(CC2=NCCN2)c2cccc(O)c2)cc1` [Example 6, phentolamine mesylate], the “solid form found by XRPD analysis” value is “converted to the phentolamine mesylate obtained according to Example 1”.

On to `Cc1ccc(N(CC2=NCCN2)c2cccc(O)c2)cc1` [Example 7, phentolamine mesylate], for which the “solid form found by XRPD analysis” value is “converted to the phentolamine mesylate obtained according to Example 1”.

For the compound `Cc1ccc(N(CC2=NCCN2)c2cccc(O)c2)cc1` [Example 11, phentolamine mesylate], the “solid form found by XRPD analysis” value is given as “converted to the phentolamine mesylate obtained according to Example 1”.

Turning to `Cc1ccc(N(CC2=NCCN2)c2cccc(O)c2)cc1` [Example 12, phentolamine mesylate], the “solid form found by XRPD analysis” value was “converted to the phentolamine mesylate obtained according to Example 1”.
